Data from PubChem BioAssay AID274 (DTP/NCI, 2004).
“And” between values parts separate entries of the source, which are not always exact repeats. Equal values may be shown once. Inconclusive results and toxic doses are left out.

Test system: BDF1 mice, Lewis lung carcinoma iv, survival T/C
Assay: NCI In Vivo Anticancer Drug Screen. Data for tumor model Lewis Lung Carcinoma (intravenous) in B6D2F1 (BDF1) mice
Settings: endpoint: median survival time, higher = longer survival
Method: The antitumor activity of compounds was measured in mice bearing transplantable tumors. Survival or tumor size were measured and the results are expressed as the measurement made in the treated group (T) divided by the measurement made in the vehicle treated control group (C). The tumor model used in this assay is Lewis Lung Carcinoma (intravenous) in B6D2F1 (BDF1) mice

[1] = dose: 6.25 mg/kg/injection, schedule: Q01DX009 (ip), vehicle: saline with Tween-80
[2] = dose: 12.5 mg/kg/injection, schedule: Q01DX009 (ip), vehicle: saline with Tween-80
[3] = dose: 25.0 mg/kg/injection, schedule: Q01DX009 (ip), vehicle: saline with Tween-80
[4] = dose: 200.0 mg/kg/injection, schedule: Q01DX009 (ip), vehicle: saline with Tween-80
[5] = dose: 50.0 mg/kg/injection, schedule: Q01DX009 (ip), vehicle: saline with Tween-80

SMILES: COC(C(=O)C(O)C(C)O)C1CC2C=C3C=C(OC4CC(OC5CC(O)C(OC)C(C)O5)C(OC(C)=O)C(C)O4)C(C)C(=O)C3=C(O)C2=C(O)C1OC1CC(OC2CC(OC3CC(C)(O)C(O)C(C)O3)C(O)C(C)O2)C(O)C(C)O1 (stereo not given)
- T/C (dose: 0.06 mg/kg/injection, schedule: Q01DX009 (ip), vehicle: saline with Tween-80): 96 % of control
- T/C (dose: 0.13 mg/kg/injection, schedule: Q01DX009 (ip), vehicle: saline with Tween-80): 101 % of control
- T/C (dose: 0.25 mg/kg/injection, schedule: Q01DX009 (ip), vehicle: saline with Tween-80): 114 % of control
- T/C (dose: 0.5 mg/kg/injection, schedule: Q01DX009 (ip), vehicle: saline with Tween-80): 104 % of control
- T/C (dose: 1.0 mg/kg/injection, schedule: Q01DX009 (ip), vehicle: saline with Tween-80): 101 % of control
- T/C (dose: 2.0 mg/kg/injection, schedule: Q01DX009 (ip), vehicle: saline with Tween-80): 92 % of control

SMILES: CC1(CO)C(O)CCC2(C)C1CCC1CC3CC12CCC3(O)CO (stereo not given)
- T/C [1]: 87 % of control
- T/C [2]: 97 % of control
- T/C [3]: 110 % of control
- T/C [4]: 106 % of control

SMILES: COc1cc2ccnc(C=O)c2cc1OC
- T/C [3]: 107 % of control
- T/C [5]: 102 % of control
- T/C (dose: 100.0 mg/kg/injection, schedule: Q01DX009 (ip), vehicle: saline with Tween-80): 102 % of control
- T/C [4]: 108 % of control

SMILES: C[C@]12CC[C@H]3[C@@H](CCC4=C[C@@H](OC5OCC(OC6OC(CO)C(O)C(O)C6O)C(O)C5O)CC[C@@]43C=O)[C@@]1(O)CCC2C1=CC(=O)OC1 (stereo not given in full)
- T/C (dose: 0.16 mg/kg/injection, schedule: Q01DX009 (ip), vehicle: Klucel (hydroxypropylcellulose) (HPC)): 99 % of control
- T/C (dose: 0.31 mg/kg/injection, schedule: Q01DX009 (ip), vehicle: Klucel (hydroxypropylcellulose) (HPC)): 100 % of control
- T/C (dose: 0.63 mg/kg/injection, schedule: Q01DX009 (ip), vehicle: Klucel (hydroxypropylcellulose) (HPC)): 102 % of control
- T/C (dose: 1.25 mg/kg/injection, schedule: Q01DX009 (ip), vehicle: Klucel (hydroxypropylcellulose) (HPC)): 99 % of control
- T/C (dose: 2.5 mg/kg/injection, schedule: Q01DX009 (ip), vehicle: Klucel (hydroxypropylcellulose) (HPC)): 122 % of control
- T/C (dose: 5.0 mg/kg/injection, schedule: Q01DX009 (ip), vehicle: Klucel (hydroxypropylcellulose) (HPC)): 122 % of control

SMILES: CCC1CN2C(=N1)c1ccccc1-c1cc(Cl)ccc12 (stereo not given)
- T/C (dose: 3.13 mg/kg/injection, schedule: Q01DX009 (ip), vehicle: saline with Tween-80): 104 % of control and 118 % of control
- T/C [1]: 109 % of control and 90 % of control
- T/C [2]: 100 % of control
- T/C [3]: 94 % of control and 107 % of control
- T/C [5]: 102 % of control and 122 % of control

SMILES: CC(C)n1cnc2c(Cl)ncnc21
- T/C [3]: 113 % of control
- T/C [5]: 95 % of control

SMILES: CS(=O)(=O)[O-].CS(=O)(=O)[O-].NC1CCCCC1N.[Pt+4] (stereo not given)
- T/C (dose: 0.31 mg/kg/injection, schedule: Q01DX009 (ip), vehicle: dextrose): 113 % of control
- T/C (dose: 0.62 mg/kg/injection, schedule: Q01DX009 (ip), vehicle: dextrose): 98 % of control
- T/C (dose: 1.25 mg/kg/injection, schedule: Q01DX009 (ip), vehicle: dextrose): 91 % of control

SMILES: O=c1[nH]c(=O)n(C2CC(O)C(CO)O2)cc1F (stereo not given)
- T/C (dose: 72.0 mg/kg/injection, schedule: Q04DX003 (ip), vehicle: saline): 108 % of control and 113 % of control
- T/C (dose: 72.0 mg/kg/injection, schedule: Q04DX006 (ip), vehicle: saline): 123 % of control
- T/C (dose: 103.0 mg/kg/injection, schedule: Q04DX006 (ip), vehicle: saline): 116 % of control
- T/C (dose: 210.0 mg/kg/injection, schedule: Q04DX006 (ip), vehicle: saline): 155 % of control
- T/C (dose: 300.0 mg/kg/injection, schedule: Q04DX006 (ip), vehicle: saline): 96 % of control
- T/C (dose: 429.0 mg/kg/injection, schedule: Q04DX003 (ip), vehicle: saline): 174 % of control

SMILES: COc1cccc2c1C(=O)c1c(O)c3c(c(O)c1C2=O)C[C@@](O)(C(=O)CO)C[C@@H]3OC1CC(N)C(O)C(C)O1 (stereo not given in full)
- T/C (dose: 0.12 mg/kg/injection, schedule: Q01DX009 (ip), vehicle: saline): 97 % of control
- T/C (dose: 0.25 mg/kg/injection, schedule: Q01DX009 (ip), vehicle: saline): 99 % of control and 110 % of control and 90 % of control
- T/C (dose: 0.5 mg/kg/injection, schedule: Q01DX009 (ip), vehicle: saline): 99 % of control and 106 % of control and 113 % of control
- T/C (dose: 0.5 mg/kg/injection, schedule: Q04DX003 (ip), vehicle: saline): 100 % of control
- T/C (dose: 0.88 mg/kg/injection, schedule: Q01DX009 (ip), vehicle: saline): 107 % of control
- T/C (dose: 1.0 mg/kg/injection, schedule: Q01DX009 (ip), vehicle: saline): 100 % of control and 111 % of control and 280 % of control
- T/C (dose: 1.0 mg/kg/injection, schedule: Q04DX003 (ip), vehicle: saline): 92 % of control and 95 % of control
- T/C (dose: 1.26 mg/kg/injection, schedule: Q01DX009 (ip), vehicle: saline): 121 % of control
- T/C (dose: 1.92 mg/kg/injection, schedule: Q04DX003 (ip), vehicle: saline): 111 % of control
- T/C (dose: 2.0 mg/kg/injection, schedule: Q01DX001 (ip), vehicle: saline): 112 % of control and 122 % of control
- T/C (dose: 2.0 mg/kg/injection, schedule: Q01DX009 (ip), vehicle: saline): 112 % of control and 115 % of control
- T/C (dose: 2.0 mg/kg/injection, schedule: Q04DX003 (ip), vehicle: saline): 96 % of control and 110 % of control
- T/C (dose: 2.57 mg/kg/injection, schedule: Q01DX009 (ip), vehicle: saline): 197 % of control
- T/C (dose: 3.6 mg/kg/injection, schedule: Q01DX001 (im), vehicle: water): 113 % of control
- T/C (dose: 3.9 mg/kg/injection, schedule: Q04DX003 (ip), vehicle: saline): 225 % of control
- T/C (dose: 4.0 mg/kg/injection, schedule: Q01DX001 (ip), vehicle: saline): 114 % of control
- T/C (dose: 4.0 mg/kg/injection, schedule: Q04DX003 (ip), vehicle: saline): 101 % of control and 105 % of control
- T/C (dose: 4.8 mg/kg/injection, schedule: Q01DX001 (iv), vehicle: saline): 114 % of control and 115 % of control and 123 % of control
- T/C (dose: 5.6 mg/kg/injection, schedule: Q04DX003 (ip), vehicle: saline): 253 % of control
- T/C (dose: 6.0 mg/kg/injection, schedule: Q01DX001 (im), vehicle: water): 101 % of control
- T/C (dose: 6.86 mg/kg/injection, schedule: Q01DX001 (iv), vehicle: saline): 151 % of control
- T/C (dose: 8.0 mg/kg/injection, schedule: Q01DX001 (ip), vehicle: saline): 154 % of control and 169 % of control
- T/C (dose: 8.0 mg/kg/injection, schedule: Q04DX003 (ip), vehicle: saline): 105 % of control
- T/C (dose: 9.8 mg/kg/injection, schedule: Q01DX001 (iv), vehicle: saline): 195 % of control
- T/C (dose: 14.0 mg/kg/injection, schedule: Q01DX001 (iv), vehicle: saline): 175 % of control and 333 % of control

SMILES: O=C1CC2(C(=O)N1CN1CCOCC1)c1ccccc1-c1ccccc12
- T/C (dose: 50.0 mg/kg/injection, schedule: Q01DX009 (ip), vehicle: Klucel (hydroxypropylcellulose) (HPC)): 94 % of control
- T/C (dose: 100.0 mg/kg/injection, schedule: Q01DX009 (ip), vehicle: Klucel (hydroxypropylcellulose) (HPC)): 98 % of control
- T/C (dose: 200.0 mg/kg/injection, schedule: Q01DX009 (ip), vehicle: Klucel (hydroxypropylcellulose) (HPC)): 101 % of control
- T/C (dose: 400.0 mg/kg/injection, schedule: Q01DX009 (ip), vehicle: Klucel (hydroxypropylcellulose) (HPC)): 112 % of control

SMILES: C=C1C(=O)OC2C3OC(C)(CCC(O)C3COC(C)=O)CC(OC(=O)/C(=C/C)COC(C)=O)C12 (stereo not given)
- T/C (dose: 0.75 mg/kg/injection, schedule: Q01DX009 (ip), vehicle: suspension in saline): 112 % of control
- T/C (dose: 1.5 mg/kg/injection, schedule: Q01DX009 (ip), vehicle: suspension in saline): 103 % of control
- T/C (dose: 3.0 mg/kg/injection, schedule: Q01DX009 (ip), vehicle: suspension in saline): 89 % of control

SMILES: CC(C)([NH-])CO.CC(C)([NH-])CO.[Cl][Cd][Cl]
- T/C (dose: 0.63 mg/kg/injection, schedule: Q01DX009 (ip), vehicle: saline with Tween-80): 97 % of control
- T/C (dose: 1.25 mg/kg/injection, schedule: Q01DX009 (ip), vehicle: saline with Tween-80): 88 % of control
- T/C (dose: 2.5 mg/kg/injection, schedule: Q01DX009 (ip), vehicle: saline with Tween-80): 99 % of control

SMILES: Cc1cc2cc3cc(C)c(N)cc3nc2cc1N
- T/C (dose: 3.12 mg/kg/injection, schedule: Q01DX009 (ip), vehicle: saline with Tween-80): 102 % of control
- T/C [1]: 104 % of control
- T/C [2]: 100 % of control
- T/C [3]: 105 % of control

SMILES: N=[N+]=CC(=O)OCC(N)C(=O)O (stereo not given)
- T/C (dose: 0.78 mg/kg/injection, schedule: Q01DX009 (ip), vehicle: saline): 98 % of control
- T/C (dose: 1.56 mg/kg/injection, schedule: Q01DX009 (ip), vehicle: saline): 103 % of control
- T/C (dose: 3.12 mg/kg/injection, schedule: Q01DX009 (ip), vehicle: saline): 100 % of control
- T/C (dose: 6.25 mg/kg/injection, schedule: Q01DX009 (ip), vehicle: saline): 104 % of control
- T/C (dose: 12.5 mg/kg/injection, schedule: Q01DX009 (ip), vehicle: saline): 117 % of control
